Test results reported in patent publication US20230217926A1, “SELECTIVE HERBICIDES BASED ON SUBSTITUTED ISOXAZOLIN CARBOXAMIDES AND ISOXADIFEN-ETHYL” (BAYER AKTIENGESELLSCHAFT, priority 2020, published 2023).

Experiments:
HORVS Montoya [1] = assay: Safener seed treatment, pre-emergence herbicide, crop damage; assay type: in vivo, spring barley; set-up: key to Reduction [Difference]: % crop damage without safener minus % damage with safener; details: HER 15 g a.i./ha pre-emergence; for Reduction [%] / Reduction [Difference]: isoxadifen-ethyl 0.25 g a.i./kg seed; for HER effect + SAF: isoxadifen-ethyl seed treatment 0.25 g a.i./kg seed; for HER effect: no safener
Description: (§1) For the safener seed treatment, sufficient seeds of the respective crops (spring wheat, TRZAS; spring barley, HORVS; maize, ZEAMA) were weighed into screw top glass bottles approximately twice the volume of the seeds.
(§2) The specified safeners, formulated as wettable powder (WP) were weighed out so that the specified rates (g a.i./kg seed) would be obtained, dissolved in water (1 ml water per 10 g of seeds), and added to the seeds to produce a slurry.
(§3) The bottles were capped and then placed in an overhead shaker (set at medium speed for ca. 60 minutes) so that the seeds were evenly coated with the slurry. The bottles were uncapped and the seeds were either placed on paper and dried for an interval of 3-4 hours prior to sowing, or directly sown. Seeds were placed in sandy loam soil in pots of a diameter of 7-8 cm, and covered with soil.
(§4) Pre-emergence application of the specified herbicides was done subsequently, on two sets of plants: a) seed treatment with safener, as described above
(§5) The herbicides were formulated as WP and was sprayed onto the soil surface as an aqueous suspension at an equivalent water application rate of 300 l/ha.
(§6) After application, the test plants were kept in the greenhouse under good growth conditions. At intervals up to 4 weeks after application (=28 days after treatment; DAT), % crop damage observed on the treated plants was scored visually in comparison to control plants that had not received any safener or herbicide treatment.
(§7) Values in the table below are mean values of at least 2 replicates.
Reduction[Difference]=herbicide damage without safener−herbicide damage with safener Reduction[%]=(Reduction[Difference]*100)/herbicide damage without safener b) Plant Species, Variety: HORVS Montoya, Safener (SAF): Isoxadifen-Ethyl

TRZAS Triso [2] = assay: Tank-mix post-emergence crop damage, greenhouse, visual assessment; assay type: in vivo, spring wheat; details: 21 DAT; for Reduction [%] / Reduction [Difference]: isoxadifen-ethyl 50 g a.i./ha; for HER effect: no safener
Description: (§8) Seeds of crops (spring wheat, TRZAS; spring barley, HORVS; maize, ZEAMA) were placed in sandy loam soil in peat pots, covered with soil and cultivated in a greenhouse under good growth conditions. Two to three weeks after sowing, the test plants were treated at the 1 to 3-leaf stage. The herbicide/safener active compound combinations according to the invention, formulated as wettable powders or emulsion concentrates, and, in parallel tests, the correspondingly formulated individual active compounds were sprayed onto the green parts of the plants in various dosages using an amount of water of 300 l/ha (converted).
(§9) The pots were returned under good growing conditions in a glasshouse and a visual assessment of herbicidal effects was made at intervals from 1 to 3 weeks after herbicide application (DAT=days after treatment). Assessment was on a percentage basis in comparison with untreated control plants (0%=no injury, 100%=complete kill).
(§10) Reduction[Difference]=herbicide damage without safener−herbicide damage with safener Reduction[%]=(Reduction[Difference]*100)/herbicide damage without safener
5d) Plant Species, Variety: TRZAS Triso, Safener (SAF): Isoxadifen-Ethyl

ZEAMA Sileno [3] = assay: Safener seed treatment, pre-emergence herbicide, crop damage; assay type: in vivo, maize; set-up: key to Reduction [Difference]: % crop damage without safener minus % damage with safener; details: for Reduction [%] / Reduction [Difference]: isoxadifen-ethyl 0.25 g a.i./kg seed; for HER effect + SAF: isoxadifen-ethyl seed treatment 0.25 g a.i./kg seed; for HER effect: no safener
Description: as §1, §2, §3, §4, §5, §6, §7
Reduction[Difference]=herbicide damage without safener−herbicide damage with safener Reduction[%]=(Reduction[Difference]*100)/herbicide damage without safener […]
c) Plant Species, Variety: ZEAMA Sileno, Safener (SAF): Isoxadifen-Ethyl

ZEAMA Sileno [4] = assay: Tank-mix post-emergence crop damage, greenhouse, visual assessment; assay type: in vivo, maize; set-up: key to Reduction [Difference]: % points: herbicide damage without safener − damage with safener; details: for HER effect + SAF / Reduction [%] / Reduction [Difference]: Final; for HER effect: no safener, Final assessment
Description: as §8, §9, §10
a) Plant Species, Variety: ZEAMA Sileno, Safener (SAF): Isoxadifen-Ethyl

TRZAS Triso [5] = assay: Safener seed treatment, pre-emergence herbicide, crop damage; assay type: in vivo, spring wheat; set-up: key to Reduction [Difference]: % crop damage without safener minus % damage with safener; details: for Reduction [%] / Reduction [Difference]: isoxadifen-ethyl 0.25 g a.i./kg seed; for HER effect + SAF: isoxadifen-ethyl seed treatment 0.25 g a.i./kg seed; for HER effect: no safener
Description: as §1, §2, §3, §4, §5, §6, §7
Reduction[Difference]=herbicide damage without safener−herbicide damage with safener Reduction[%]=(Reduction[Difference]*100)/herbicide damage without safener a) Plant Species, Variety: TRZAS Triso, Safener (SAF): Isoxadifen-Ethyl

HORVS Montoya [6] = assay: Tank-mix post-emergence crop damage, greenhouse, visual assessment; assay type: in vivo, spring barley; details: 10 DAT; for Reduction [%] / Reduction [Difference]: isoxadifen-ethyl 50 g a.i./ha; for HER effect: no safener
Description: as §8, §9, §10
c) Plant Species, Variety: HORVS Montoya, Safener (SAF): Isoxadifen-Ethyl

[7] = HER 0.25 g a.i./ha + isoxadifen-ethyl 50 g a.i./ha
[8] = HER 40 g a.i./ha pre-emergence, 14 DAT
[9] = HER 2 g a.i./ha + isoxadifen-ethyl 50 g a.i./ha
[10] = HER 2 g a.i./ha, isoxadifen-ethyl 50 g a.i./ha
[11] = HER 5 g a.i./ha pre-emergence, 11 DAT (Interim)
[12] = HER 5 g a.i./ha pre-emergence, 21 DAT (Final)
[13] = HER 8 g a.i./ha, isoxadifen-ethyl 50 g a.i./ha
[14] = HER 32 g a.i./ha, isoxadifen-ethyl 100 g a.i./ha
[15] = HER 15 g a.i./ha pre-emergence, 11 DAT (Interim)
[16] = HER 0.5 g a.i./ha + isoxadifen-ethyl 50 g a.i./ha
[17] = HER 40 g a.i./ha pre-emergence, 26 DAT
[18] = HER 80 g a.i./ha pre-emergence, 14 DAT
[19] = HER 80 g a.i./ha pre-emergence, 26 DAT
[20] = HER 15 g a.i./ha pre-emergence, 21 DAT (Final)

SMILES: C=CC1(C(=O)NC2COC(C(=O)OC)C2)CC(c2cc(F)cc(F)c2)=NO1 (mixture of isomers) [Example 1.68]
- Reduction [%] (HORVS Montoya [1]; 11 DAT (Interim)): 31%
- Reduction [Difference] (HORVS Montoya [1]; 11 DAT (Interim)): 20
- HER effect + SAF (HORVS Montoya [1]; 11 DAT (Interim)): 45%
- HER effect (HORVS Montoya [1]; 11 DAT (Interim)): 65%
- HER effect + SAF (TRZAS Triso [2]; [7]): 20%
- Reduction [%] (TRZAS Triso [2]; HER 0.25 g a.i./ha): 50%
- Reduction [Difference] (TRZAS Triso [2]; HER 0.25 g a.i./ha): 20
- HER effect (TRZAS Triso [2]; HER 0.25 g a.i./ha): 40%
- HER effect + SAF (TRZAS Triso [2]; HER 1 g a.i./ha + isoxadifen-ethyl 50 g a.i./ha): 70%
- Reduction [%] (TRZAS Triso [2]; HER 1 g a.i./ha): 25%
- Reduction [Difference] (TRZAS Triso [2]; HER 1 g a.i./ha): 23
- HER effect (TRZAS Triso [2]; HER 1 g a.i./ha): 93%
- Reduction [%] (ZEAMA Sileno [3]; [8]): 25%
- Reduction [Difference] (ZEAMA Sileno [3]; [8]): 23
- HER effect + SAF (ZEAMA Sileno [3]; [8]): 70%
- HER effect (ZEAMA Sileno [3]; [8]): 93%
- HER effect + SAF (ZEAMA Sileno [4]; [9]): 25%
- Reduction [%] (ZEAMA Sileno [4]; [10]): 58%
- Reduction [Difference] (ZEAMA Sileno [4]; [10]): 35
- HER effect (ZEAMA Sileno [4]; HER 2 g a.i./ha, 0%=no injury, 100%=complete kill): 60%
- Reduction [%] (TRZAS Triso [5]; [11]): 44%
- Reduction [Difference] (TRZAS Triso [5]; [11]): 20
- Reduction [%] (TRZAS Triso [5]; [12]): 56%
- Reduction [Difference] (TRZAS Triso [5]; [12]): 25
- HER effect + SAF (TRZAS Triso [5]; [11]): 25%
- HER effect + SAF (TRZAS Triso [5]; [12]): 20%
- HER effect (TRZAS Triso [5]; [11]): 45%
- HER effect (TRZAS Triso [5]; [12]): 45%
- HER effect + SAF (HORVS Montoya [6]; [7]): 0%
- Reduction [%] (HORVS Montoya [6]; HER 0.25 g a.i./ha): 100%
- Reduction [Difference] (HORVS Montoya [6]; HER 0.25 g a.i./ha): 20
- HER effect (HORVS Montoya [6]; HER 0.25 g a.i./ha): 20%

SMILES: COC(=O)C1C=CC(NC(=O)C2(C(F)(F)F)CC(c3cccc(F)c3)=NO2)C1 (centres unmarked) [Example 1.18]
- Reduction [%] (HORVS Montoya [1]; 11 DAT (Interim)): 50%
- Reduction [Difference] (HORVS Montoya [1]; 11 DAT (Interim)): 20
- Reduction [%] (HORVS Montoya [1]; 21 DAT (Final)): 88%
- Reduction [Difference] (HORVS Montoya [1]; 21 DAT (Final)): 35
- HER effect + SAF (HORVS Montoya [1]; 11 DAT (Interim)): 20%
- HER effect + SAF (HORVS Montoya [1]; 21 DAT (Final)): 5%
- HER effect (HORVS Montoya [1]; 11 DAT (Interim)): 40%
- HER effect (HORVS Montoya [1]; 21 DAT (Final)): 40%
- Reduction [%] (ZEAMA Sileno [3]; [8]): 63%
- Reduction [Difference] (ZEAMA Sileno [3]; [8]): 25
- HER effect + SAF (ZEAMA Sileno [3]; [8]): 15%
- HER effect (ZEAMA Sileno [3]; [8]): 40%
- HER effect + SAF (ZEAMA Sileno [4]; HER 8 g a.i./ha + isoxadifen-ethyl 50 g a.i./ha): 25%
- Reduction [%] (ZEAMA Sileno [4]; [13]): 73%
- Reduction [Difference] (ZEAMA Sileno [4]; [13]): 69
- HER effect (ZEAMA Sileno [4]; HER 8 g a.i./ha): 94%
- HER effect + SAF (ZEAMA Sileno [4]; HER 32 g a.i./ha + isoxadifen-ethyl 100 g a.i./ha): 20%
- Reduction [%] (ZEAMA Sileno [4]; [14]): 79%
- Reduction [Difference] (ZEAMA Sileno [4]; [14]): 77
- HER effect (ZEAMA Sileno [4]; HER 32 g a.i./ha): 97%
- Reduction [%] (TRZAS Triso [5]; [15]): 67%
- Reduction [Difference] (TRZAS Triso [5]; [15]): 30
- HER effect + SAF (TRZAS Triso [5]; [15]): 15%
- HER effect (TRZAS Triso [5]; [15]): 45%

SMILES: C=CC1(C(=O)NC2C=CC(C(=O)OC)C2)CC(c2cc(F)cc(F)c2)=NO1 (centres unmarked) [Example 1.26]
- Reduction [%] (HORVS Montoya [1]; 21 DAT (Final)): 90%
- Reduction [Difference] (HORVS Montoya [1]; 21 DAT (Final)): 45
- HER effect + SAF (HORVS Montoya [1]; 21 DAT (Final)): 5%
- HER effect (HORVS Montoya [1]; 21 DAT (Final)): 50%
- HER effect + SAF (TRZAS Triso [2]; [16]): 10%
- Reduction [%] (TRZAS Triso [2]; HER 0.5 g a.i./ha): 75%
- Reduction [Difference] (TRZAS Triso [2]; HER 0.5 g a.i./ha): 30
- HER effect (TRZAS Triso [2]; HER 0.5 g a.i./ha): 40%
- Reduction [%] (ZEAMA Sileno [3]; [17]): 90%
- Reduction [Difference] (ZEAMA Sileno [3]; [17]): 45
- HER effect + SAF (ZEAMA Sileno [3]; [17]): 5%
- HER effect (ZEAMA Sileno [3]; [17]): 50%
- Reduction [%] (ZEAMA Sileno [3]; [18]): 36%
- Reduction [Difference] (ZEAMA Sileno [3]; [18]): 25
- Reduction [%] (ZEAMA Sileno [3]; [19]): 79%
- Reduction [Difference] (ZEAMA Sileno [3]; [19]): 55
- HER effect + SAF (ZEAMA Sileno [3]; [18]): 45%
- HER effect + SAF (ZEAMA Sileno [3]; [19]): 15%
- HER effect (ZEAMA Sileno [3]; [18]): 70%
- HER effect (ZEAMA Sileno [3]; [19]): 70%
- Reduction [%] (TRZAS Triso [5]; [15]): 31%
- Reduction [Difference] (TRZAS Triso [5]; [15]): 20
- Reduction [%] (TRZAS Triso [5]; [20]): 80%
- Reduction [Difference] (TRZAS Triso [5]; [20]): 60
- HER effect + SAF (TRZAS Triso [5]; [15]): 45%
- HER effect + SAF (TRZAS Triso [5]; [20]): 15%
- HER effect (TRZAS Triso [5]; [15]): 65%
- HER effect (TRZAS Triso [5]; [20]): 75%
- HER effect + SAF (HORVS Montoya [6]; [16]): 10%
- Reduction [%] (HORVS Montoya [6]; HER 0.5 g a.i./ha): 75%
- Reduction [Difference] (HORVS Montoya [6]; HER 0.5 g a.i./ha): 30
- HER effect (HORVS Montoya [6]; HER 0.5 g a.i./ha): 40%
- HER effect + SAF (HORVS Montoya [6]; [9]): 50%
- Reduction [%] (HORVS Montoya [6]; HER 2 g a.i./ha): 29%
- Reduction [Difference] (HORVS Montoya [6]; HER 2 g a.i./ha): 20
- HER effect (HORVS Montoya [6]; HER 2 g a.i./ha): 70%
